In ChEMBL document CHEMBL6109094, “Anti-inflammatory agents design via the fragment hybrid strategy in the discovery of compound c1 for treating ALI and UC” (Eur J Med Chem, 2025):
Activity calls are given as the source filed them. The calls are words filed in the database; no cut-off is given here.

What was measured:
RAW264.7 [1] = test: Anti-inflammatory activity in mouse RAW264.7 cells assessed as inhibition of LPS-induced IL-6 mRNA level preincubated for 2 hrs followed by LPS addition measured after 6 hrs by RT-qPCR analysis; assay type: functional, cell-based; settings: dose 1-4 µM, time 8.0 hrs
RAW264.7 [2] = test: Anti-inflammatory activity in mouse RAW264.7 cells assessed as inhibition of LPS-induced TNF-alpha mRNA level preincubated for 2 hrs followed by LPS addition measured after 6 hrs by RT-qPCR analysis; assay type: functional, cell-based; settings: dose 1-4 µM, time 8.0 hrs
Homo sapiens = organism: Homo sapiens; test: Inhibition of TAK1 (unknown origin) at 10 uM relative to control
Mus musculus [3] = test: Anti-inflammatory activity in C57BL/6 mouse model of LPS-induced ALI assessed as inhibition of TNF-alpha level in BALF at 20 mg/kg, po measured after 6 hrs with administered on every 12 hrs followed by LPS treatment after 30 mins post-compound treatment by ELISA; assay type: functional, organism-based; settings: time 6.5 hrs
Mus musculus [4] = test: Anti-inflammatory activity in C57BL/6 mouse model of LPS-induced ALI assessed as inhibition of TNF-alpha level in serum at 20 mg/kg, po measured after 6 hrs with administered on every 12 hrs followed by LPS treatment after 30 mins post-compound treatment by ELISA; assay type: functional, organism-based; settings: time 6.5 hrs
Mus musculus [5] = test: Anti-inflammatory activity in C57BL/6 mouse model of LPS-induced ALI assessed as decrease in protein concentration in BALF at 20 mg/kg, po measured after 6 hrs with administered on every 12 hrs followed by LPS treatment after 30 mins post-compound treatment; assay type: functional, organism-based; settings: time 6.5 hrs
Mus musculus [6] = test: Anti-inflammatory activity in C57BL/6 mouse model of LPS-induced ALI assessed as decrease in total cell count in BALF at 20 mg/kg, po measured after 6 hrs with administered on every 12 hrs followed by LPS treatment after 30 mins post-compound treatment; assay type: functional, organism-based; settings: time 6.5 hrs
Mus musculus [7] = test: Anti-inflammatory activity in C57BL/6 mouse model of LPS-induced ALI assessed as decrease in inflammatory cell infiltration in lung tissue at 20 mg/kg, po measured after 6 hrs with administered on every 12 hrs followed by LPS treatment after 30 mins post-compound treatment by H and E/IHC staining based analysis; assay type: functional, organism-based; settings: time 6.5 hrs
Mus musculus [8] = test: Anti-inflammatory activity in C57BL/6 mouse model of DSS-induced ulcerative colitis assessed as colon length at 40 mg/kg, po administered for 8 days (reference value: 5.1 cm); assay type: functional, organism-based; settings: time 8.0 day
Mus musculus [9] = test: Anti-inflammatory activity in C57BL/6 mouse model of DSS-induced ulcerative colitis assessed as colon length at 20 mg/kg, po administered for 8 days (reference value: 5.1 cm); assay type: functional, organism-based; settings: time 8.0 day
Mus musculus [10] = test: Anti-inflammatory activity in C57BL/6 mouse model of DSS-induced ulcerative colitis assessed as decrease in serum IL-6 level at 20 to 40 mg/kg, po administered for 8 days by ELISA; assay type: functional, organism-based; settings: dose 20-40 mg/kg, time 8.0 day
Mus musculus [11] = test: Anti-inflammatory activity in C57BL/6 mouse model of DSS-induced ulcerative colitis assessed as decrease in inflammatory cell infiltration in splenic tissue at 20 to 40 mg/kg, po administered for 8 days […]; assay type: functional, organism-based; settings: dose 20-40 mg/kg, time 8.0 day
[12] = Acute toxicity in C57BL/6 mouse assessed as change in body weight change at 100 to 200 mg/kg, po measured for 10 days; assay type: organism-based; settings: in vivo, 240 h, dose 100-200 mg/kg, time 10 day
[13] = Acute toxicity in C57BL/6 mouse assessed as change in pathological change in heart at 100 to 200 mg/kg, po measured for 10 days by H and E staining based analysis; assay type: organism-based; settings: in vivo, 240 h, dose 100-200 mg/kg, time 10 day
[14] = Acute toxicity in C57BL/6 mouse assessed as change in pathological change in liver at 100 to 200 mg/kg, po measured for 10 days by H and E staining based analysis; assay type: organism-based; settings: in vivo, 240 h, dose 100-200 mg/kg, time 10 day
[15] = Acute toxicity in C57BL/6 mouse assessed as change in pathological change in spleen at 100 to 200 mg/kg, po measured for 10 days by H and E staining based analysis; assay type: organism-based; settings: in vivo, 240 h, dose 100-200 mg/kg, time 10 day
[16] = Acute toxicity in C57BL/6 mouse assessed as change in pathological change in kidney at 100 to 200 mg/kg, po measured for 10 days by H and E staining based analysis; assay type: organism-based; settings: in vivo, 240 h, dose 100-200 mg/kg, time 10 day
[17] = Half life in Sprague-Dawley rat at 10 mg/kg, po measured for 24 hrs; assay type: ADME, organism-based; settings: in vivo
[18] = Cmax in Sprague-Dawley rat at 10 mg/kg, po measured for 24 hrs; assay type: ADME, organism-based; settings: in vivo
[19] = Oral bioavailability in Sprague-Dawley rat at 10 mg/kg measured for 24 hrs; assay type: ADME, organism-based; settings: in vivo
J774.A1 [20] = test: cells; settings: Mus musculus
Description: Anti-inflammatory activity in mouse J774.A1 cells assessed as inhibition of LPS-induced IL-6 level preincubated for 30 mins followed by LPS addition measured after 24 hrs by ELISA

J774.A1 [21] = test: cells; settings: Mus musculus; remark: listed apart in the source
Description: Anti-inflammatory activity in mouse J774.A1 cells assessed as inhibition of LPS-induced TNF-alpha level preincubated for 30 mins followed by LPS addition measured after 24 hrs by ELISA

THP-1 = test: cells; settings: Homo sapiens
Description: Anti-inflammatory activity in human THP-1 cells assessed as inhibition of LPS-induced TNF-alpha level preincubated for 30 mins followed by LPS addition measured after 24 hrs by ELISA

Compound: COc1cc2c(O[C@H]3CC[C@@H](N)CC3)ncnc2cc1OCc1cccc(Br)c1
- inhibition (RAW264.7 [1]): Dose-dependent-effect
- inhibition (RAW264.7 [2]): Dose-dependent-effect
- inhibition (Homo sapiens): 4.42%
- inhibition (Mus musculus [3]): Active
- inhibition (Mus musculus [4]): Active
- Activity (Mus musculus [5]): Active
- Activity (Mus musculus [6]): Active
- Activity (Mus musculus [7]): Active
- Activity (Mus musculus [8]): Active
- Activity (Mus musculus [9]): Active
- Activity (Mus musculus [10]): Active; Activity Was Comparable To 5-Asa
- Activity (Mus musculus [11]): Active
- Activity [12]: Non-toxic
- Activity [13]: Non-toxic
- Activity [14]: Non-toxic
- Activity [15]: Non-toxic
- Activity [16]: Non-toxic
- half-life [17]: 3 h
- Cmax [18]: 856 ng/mL
- bioavailability [19]: 5.5%
- IC50 (J774.A1 [20]): 1.5 µM
- IC50 (J774.A1 [21]): 1.33 µM
- IC50 (THP-1): 5.03 µM
